Measured values as given in US9464064B2, “HCV helicase inhibitors and methods of use thereof” (University of Kansas, priority 2011, dated 2016).

Target: T1, HCV NS3 helicase NS3h_1b(con1) (Hepatitis C virus genotype 1b, UniProt Q9WMX2)
T1 construct: truncated C-terminally His-tagged NS3 proteins lacking the N-terminal protease, called NS3h; His-tag (C); made in house
Assay: MBHA screen of NCI mechanistic set library at 20 μM (percent inhibition, compound interference)
Assay type: biochemical
Settings: compounds at 20 μM; for Inh. (%) (Inhibition): calculated from Equation 1
How it was run: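 Molecular beacon-based DNA unwinding assay; compounds screened at 20 μM in triplicate, with DMSO-only negative and 500 nM dT20 positive controls. Fluorescence (ex 643/em 670 nm) was read before and 30 min after adding ATP to 1 mM. Percent inhibition came from the change relative to DMSO controls; interference from pre-ATP fluorescence versus DMSO controls.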

[1] = assay interference calculated with Equation 2 (fluorescence vs DMSO-only controls before ATP)
[2] = MBHA with DNA substrate, assay interference calculated with Equation 2

T1 sequence (Q9WMX2 1192-1657): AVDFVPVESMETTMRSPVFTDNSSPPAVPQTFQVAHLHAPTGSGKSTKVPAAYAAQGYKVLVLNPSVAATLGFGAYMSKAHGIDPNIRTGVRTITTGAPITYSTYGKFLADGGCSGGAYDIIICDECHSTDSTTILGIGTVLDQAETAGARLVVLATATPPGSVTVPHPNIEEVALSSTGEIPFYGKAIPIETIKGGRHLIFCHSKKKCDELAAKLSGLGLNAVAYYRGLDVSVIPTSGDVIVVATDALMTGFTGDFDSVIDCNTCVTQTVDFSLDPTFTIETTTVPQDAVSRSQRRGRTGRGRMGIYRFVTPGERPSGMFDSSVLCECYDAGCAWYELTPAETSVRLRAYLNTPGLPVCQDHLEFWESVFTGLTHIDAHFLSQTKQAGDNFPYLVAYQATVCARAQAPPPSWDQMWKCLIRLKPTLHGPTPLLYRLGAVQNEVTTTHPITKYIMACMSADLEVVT

| Inh. (%) (Inhibition) (MBHA with a DNA substrate) | Int.* (Ratio) (Interference) [1] | Int.* (Ratio) (Interference) [2] | Inh. (%) (Inhibition) (MBHA with DNA substrate) | Compound |
| --- | --- | --- | --- | --- |
| 9.9% | 0.98 Ratio | – | – | CC[C@]1(O)C[C@@H]2CN(CCc3c([nH]c4ccccc34)[C@@](C(=O)OC)(c3cc4c(cc3OC)N(C)[C@H]3[C@@](O)(C(=O)OC)[C@H](OC(C)=O)[C@]5(CC)C=CCN6CC[C@]43[C@@H]65)C2)C1.O=S(=O)(O)O [Compound 49842] |
| – | – | 1.03 Ratio | −1.8% | CC1=CC(=O)c2cccc(NC3=NCCO3)c21 [Compound 664331] |
| −24.7% | 1.00 Ratio | – | – | CN/N=C(\C)C(CN1CCCCC1)C(C1=C(O)c2ccccc2OC1)c1ccccc1.Cl (stereo not shown) [Compound 647418] |
| – | – | 1.03 Ratio | 29.4% | COc1ccc(/C(=N/O)C(c2ccc(OC)cc2)C2C(=O)Oc3ccccc32)cc1 (stereo not shown) [Compound 641607] |
| −3.8% | 0.89 Ratio | – | – | CCCCCCCCCCCCCCCCCCN(C)C(COC)COP(=O)([O-])OCC[N+](C)(C)C (stereo not shown) [Compound 643826] |
| −6.7% | 1.10 Ratio | – | – | CCOC(C)C(C=NNC(N)=S)=NNC(N)=S (stereo not shown) [Compound 82116] |
| – | – | 0.99 Ratio | −18.2% | O=S1(=O)OCCOS(=O)(=O)C1Cc1ccccc1 [Compound 634863] |
| – | – | 1.10 Ratio | −19.0% | CN(N=O)C(=O)N[C@@H]1[C@@H](O)[C@H](O)[C@@H](CO)O[C@@H]1O [Compound 85998] |
| 10.2% | 0.92 Ratio | – | – | CC1=C/C(=N\OCC(=O)O)CC(c2ccc(C(C)C)cc2)C1 (stereo not shown) [Compound 680506] |
| – | – | 0.95 Ratio | 5.1% | C=C1C(=O)OC2/C=C(/CO)[C@@H](OC(C)=O)C[C@H](O)/C(C)=C\[C@@H](OC(=O)[C@@H](C)CC)[C@@H]12 (stereo partly shown) [Compound 292663] |
| – | – | 0.92 Ratio | −1.8% | Cc1ccc([S+](c2ccccc2)c2cc(C)ccc2C)cc1.O=C(OC(C(=O)[O-])C(OC(=O)c1ccccc1)C(=O)O)c1ccccc1 (stereo not shown) [Compound 116693] |
| 10.6% | 1.09 Ratio | – | – | CN(C)C[C@H]1CC[C@@H](CN(C)C)C1=O.Cl.Cl [Compound 640391] |
| – | – | 1.01 Ratio | −8.2% | CC1CCCC(C(=O)/C(=C/c2cccc(Cl)c2)C(=O)C(=O)O)C1 (stereo not shown) [Compound 636084] |
| 7.2% | 1.01 Ratio | – | – | CN1CCCC2C(c3ccccc3)C(C3=NCCCC3)C(c3ccccc3)CC21.Cl (stereo not shown) [Compound 109444] |
| – | – | 0.85 Ratio | −2.5% | COC(=O)c1c[nH]c2c1-c1cc(C(=O)OCc3ccccc3)n(S(=O)(=O)c3ccc(C)cc3)c1C(=O)C2=O [Compound 679524] |
| – | – | 0.93 Ratio | −9.1% | CC(C)C(C)C=CC(C)C1CCC2C3=CC=C4CC(O)CCC4(C)C3CCC21C (stereo not shown) [Compound 62791] |
| −19.9% | 0.91 Ratio | – | – | COC1C(O)=C2C(=O)OC(C)(O)/C=C/C=C\C=C/C=C/C(c3ccccc3)NC(=O)/C=C/C=C/C=C/C=C/C2(C)C1O (stereo not shown) [Compound 236657] |
| −22.0% | 1.01 Ratio | – | – | Cc1cc(O)c(C(C)C)cc1C1(c2cc(C(C)C)c(O)cc2C)OC(=O)c2ccccc21 [Compound 2186] |
| – | – | 0.86 Ratio | 20.2% | Cc1nc(N)nc(N)c1-c1ccc(Cl)c(Cl)c1 [Compound 7364] |
| 9.0% | 0.99 Ratio | – | – | CC1(O)C=CC(=O)C=C1 [Compound 295156] |
| – | – | 0.90 Ratio | −1.0% | CO[C@H]1C[C@@H]2CC[C@@H](C)[C@@](O)(O2)C(=O)C(=O)N2CCCC[C@H]2C(=O)O[C@H]([C@H](C)C[C@@H]2CC[C@@H](O)[C@H](OC)C2)CC(=O)[C@H](C)/C=C(\C)[C@@H](O)[C@@H](OC)C(=O)[C@H](C)C[C@H](C)/C=C/C=C/C=C/1C [Compound 226080] |
| – | – | 1.04 Ratio | −16.0% | Cc1ccc(CC2(OCCN(C)C)CCC(C(C)(C)C)CC2)cc1.O=C(O)/C=C/C(=O)O (stereo not shown) [Compound 670225] |
| – | – | 0.98 Ratio | −16.0% | Cc1nnc(-n2c(O)cc(=O)n(-c3ccccc3)c2=S)nc1/C=C/c1ccc(N(C)C)cc1 [Compound 698031] |

| Inh. (%) (Inhibition) (MBHA with a DNA substrate) | Int.* (Ratio) (Interference) [1] | Int.* (Ratio) (Interference) [2] | Inh. (%) (Inhibition) (MBHA with DNA substrate) | Compound |
| --- | --- | --- | --- | --- |
| – | – | 0.94 Ratio | 28.0% | CCCCS(=N)(=O)CCC(N)C(=O)O (stereo not shown) [Compound 326231] |
| 9.9% | 0.87 Ratio | – | – | O=C(NC(=O)c1c(Cl)nc2sccn12)Nc1ccc(Cl)cc1 [Compound 633209] |
| – | – | 0.89 Ratio | −0.8% | CCOC(=O)/C=C/c1c(C)[nH]c(=O)[nH]c1=O [Compound 159935] |
| −4.8% | 1.06 Ratio | – | – | CC(=O)Oc1ccc(C(c2ccc(OC(C)=O)cc2)c2ccccn2)cc1 [Compound 614826] |
| – | – | 0.97 Ratio | 3.2% | Cc1ccc(NC(=O)c2cc3ccccc3c(N=Nc3ccccc3O)c2O)c(C)c1 [Compound 374898] |
| – | – | 0.59 Ratio | 84.4% | COC(=O)C1c2cc3c(c(O)c2C(OC2OC(C)C(OC)C(C)(OC)C2OC)CC1(C)O)C(=O)c1c(O)cc2c(c1C3=O)OC1OC2(C)C(O)C(N(C)C)C1O (stereo not shown) [Compound 70845] |
| – | – | 0.90 Ratio | 3.1% | CC(=O)c1sc2[n+](c1C)C(=O)/C(=C\c1ccccc1Cl)S2 [Compound 658285] |
| −29.5% | 1.00 Ratio | – | – | C=C(C)[C@@H]1CC[C@]2(C(=O)O)CC[C@]3(C)[C@H](CC[C@@H]4[C@@]5(C)CC[C@H](O)C(C)(C)[C@@H]5CC[C@]43C)[C@@H]12 [Compound 113090] |
| 7.6% | 0.91 Ratio | – | – | COC(=O)Nc1nc2ccc(Br)cc2[nH]1 [Compound 154754] |
| – | – | 0.91 Ratio | 21.2% | CCOc1ccccc1NC(=O)CC1Sc2ccccc2NC1=O (stereo not shown) [Compound 637680] |
| −27.4% | 1.12 Ratio | – | – | COc1cc(-c2cc(=O)c3c(OC)c(OC)c(OC)c(OC)c3o2)cc(OC)c1OC [Compound 67580] |
| −2.9% | 1.09 Ratio | – | – | Nc1nc(SCc2ccccc2Cl)c2ncn(C3OC(CO)C(O)C3O)c2n1 (stereo not shown) [Compound 40666] |
| −29.6% | 0.99 Ratio | – | – | CCOC(=O)C1=C(O)CSC1=Nc1ccc(N=C2SCC(O)=C2C(=O)OCC)cc1 [Compound 623746] |
| – | – | 0.96 Ratio | −13.0% | N#CC(C#N)=Cc1ccc(Oc2ccccc2)cc1 [Compound 643028] |
| – | – | 1.04 Ratio | −2.7% | COc1ccc(Cc2nc3ccccc3s2)cc1OC [Compound 632233] |
| – | – | 1.09 Ratio | −12.3% | CN(C)c1ccc(/C=C2\Cc3ccccc3C2=O)cc1Br [Compound 643163] |
| – | – | 0.93 Ratio | −1.1% | COC(=O)c1ccc(=O)c2nc3/c(=C/O)c(O)cc(=O)c3[nH]c12 [Compound 106995] |
| −20.3% | 0.98 Ratio | – | – | O=C1c2ccccc2C(=O)C1C(c1ccc([N+](=O)[O-])cc1)C1C(=O)c2ccccc2C1=O [Compound 643148] |
| – | – | 1.10 Ratio | 1.7% | OCC1OC(n2cnc3c(=S)nc[nH]c32)C(O)C1O (stereo not shown) [Compound 406021] |
| – | – | 1.21 Ratio | 2.2% | CCCCC(/C=N/N=C(N)N)CC.Cc1cc(O)c(C(C)C)cc1S(=O)(=O)O [Compound 66300] |
| – | – | 1.01 Ratio | −15.7% | O=Nc1ccc(O)c2ncccc12 [Compound 3852] |
| – | – | 0.99 Ratio | 13.3% | CON(C)C(=O)C1CCCO1 (stereo not shown) [Compound 695218] |
| – | – | 1.01 Ratio | 28.3% | CCN(CC)CCNC(=O)c1nn(-c2ccc(Cl)cc2)c2c1CCc1cc(OC)ccc1-2 [Compound 288010] |

| Compound | Inh. (%) (Inhibition) (MBHA with a DNA substrate) | Int.* (Ratio) (Interference) [1] | Int.* (Ratio) (Interference) [2] | Inh. (%) (Inhibition) (MBHA with DNA substrate) |
| --- | --- | --- | --- | --- |
| COC1C(C)OC(OC2CC(C)(O)Cc3cc4c(c(O)c32)C(=O)c2c(O)cc3c(c2C4=O)OC2OC3(C)C(O)C(N(C)C)C2O)C(OC)C1(C)OC (stereo not shown) [Compound 265450] | – | – | 0.54 Ratio | 38.9% |
| COC(=O)[C@@]12OC[C@]34[C@H]([C@@H](O)[C@@H]1O)[C@@]1(C)CC(=O)C(O)=C(C)[C@@H]1C[C@H]3OC(=O)[C@H](OC(=O)/C=C(\C)C(C)C)[C@@H]24 [Compound 165563] | – | – | 0.95 Ratio | 14.6% |
| O=[Se]([O-])[O-].[Na+].[Na+] [Compound 347466] | – | – | 0.89 Ratio | 27.4% |
| CO[C@H]1[C@@H](O)[C@@H](C)O[C@H](O[C@H]2[C@H](Oc3cccc4c(O)c5c(=O)oc6ccc(C)c7c(=O)oc(c34)c5c67)O[C@H](C)[C@H](O)[C@@H]2O)[C@@H]1O [Compound 5159] | – | – | 1.03 Ratio | 38.6% |
